Assay results published in US7084155B2, “Chemokine receptor binding heterocyclic compounds” (AnorMED, priority 2000, dated 2006).

Assays:
Type in all cases: cell-based
[1] = system: SDF-1 induced Ca flux in SUP-T1 cells; experiment: Inhibition of chemokine (SDF-1) induced Ca flux measured on a FLIPR; conditions: Homo sapiens
Experimental: Inhibition of Chemokine Induced Ca Flux Measured on a FLIPR (Molecular Devices) Loading dye: Fluo-3, AM (Molecular Probes F-1241) is dissolved in anhydrous DMSO and stored frozen in aliquots. To increase the solubility of the dye in the loading medium, 10% (w/v) pluronic acid (Molecular Probes F-127) is added to the Fluo-3 stock solution immediately before use. HBSS+20 mM Hepes buffer+0.2% BSA, pH 7.4. HBSS 10× [(w/o phenol red and sodium bicarbonate (Gibco 14 065–049)]; Hepes buffer 1M (Gibco 15 630–056), BSA (Sigma A3675). The flux buffer is vacuum-filtered and stored refrigerated for a maximum of 5 days. Before use in the experiment, the buffer is warmed at 37° C. in a waterbath. The test compounds were diluted in flux buffer to the desired concentration and added to 4 wells of a black microplate (4 parallel measurements per compound). The following control wells were used: 100% response control (no inhibition), flux buffer was added; 100% inhibition control: chemokine was added at 5-times the concentration required to induce a Ca flux. The chemokines are diluted in flux buffer to concentrations that are 4-fold higher than the desired concentrations required for stimulation of the cells (i.e. 2.5 nM for SDF-1[…] and 0.6 nM for RANTES). The chemokines were added to untreated 96-well Sero well compound plates (International Medical, Sterilin code 611F96). In the negative control well's (baseline monitoring), flux buffer is added instead of chemokine. As a positive control to check for dye loading efficiency, 20 μM digitonin (final concentration) was also included. The agonist plate was incubated in the FLIPR (37° C.) for 15–30 min. Cell Loading Protocol for Measuring Inhibition of SDF-1[…] Induced Ca Flux in SUP-T1 Cells. SUP-T1 cells were centrifuged at room temperature (RT) and re-suspended in loading medium (RPMI-1640 containing 2% FBS and 4 μM Fluo-3, AM). The cells were incubate at room temperature for 45 min. then washed twice in flux buffer then incubated in flux buffer at room temperature for 10 min. The cells were centrifuged and re-suspended in flux buffer at a density of 3×10^6 cells per mL. A 100 uL aliquot of the cell suspension (3×10^5 cells) was added to each well of a black microplate (Costar 3603), which already contains 50 uL of a solution of the test compound (at concentrations that are 3-fold higher than the desired final compound concentrations). The microplate is then gently centrifuged at room temperature. Homogeneous spreading of the cells on the bottom of the microplate wells was then confirmed with a microscope and the microplate was incubated in the FLIPR (37° C.) for 10 min. prior to testing. Fluorescence Measurements as a Function of Time on the FLIPR The FLIPR settings (camera exposure time and laser power) are adjusted to obtain initial fluorescence values between 8,000 and 10,000 units. After monitoring a 20 second-baseline, the agonist (chemokine) (50 uL) is added by automatic pipettor with black pipette tips. Fluorescence is measured simultaneously in all wells of the microplate every 2 seconds (first 2 min) and thereafter every 6 seconds (additional 2 min). The average ca-flux measured in each set of 4 identical wells (one test compound) was calculated by the FLIPR software.

HIV-1 BaL = experiment: Inhibition of HIV-1 BaL (CCR5 using) replication in PHA-stimulated PBMC's, viral p24 antigen expression; conditions: Human immunodeficiency virus 1, BAL
HIV-1 NL4.3 or IIIB = experiment: Inhibition of HIV-1 (NL4.3 or IIIB, CXCR4 using) replication in MT-4 cells, MTT viability; conditions: Human immunodeficiency virus 1, IIIB, MT4, concentration protecting 50% of virus-infected cells against viral cytopathicity
Experimental: Assay for Inhibition of HIV-1 (NL4.3) Replication in MT-4 Cells Inhibition of HIV-1 NL4.3 (or IIIB, CXCR4 using) replication assays were performed as previously described (Bridger et al. J. Med. Chem. 1999, 42, 3971-3981; De […] et al. Proc. Natl. Acad. Sci, 1992, 89, 5286-5290; De […] et al. Antimicrob. Agents Chemother. 1994, 38, 668-674; Bridger et al. J. Med. Chem. 1995, 38, 366-378; Schols et al. J. Exp. Med., 1997, 186, 1383-1388). Anti-HIV activity and cytotoxicity measurements were carried out in parallel. They were based on the viability of MT-4 cells that had been infected with HIV in the presence of various concentrations of the test compounds. After the MT-4 cells were allowed to proliferate for 5 days, the number of viable cells was quantified by a tetrazolium-based colorimetric 3-(4,5-dimethylthiazol-2-yl)-2,5-diphenyltetrazolium bromide (MTT) procedure in 96-well microtrays. In all of these assays, viral input (viral multiplicity of infection, MOI) was 0.01, or 100 times the 50% cell culture infective dose (CCID50). The EC50 was defined as the concentration required to protect 50% of the virus-infected cells against viral cytopathicity.

SMILES | EC50 (HIV-1 BaL) [µg/mL] | EC50 (HIV-1 NL4.3 or IIIB) [µg/mL] | inhibition at 20 µg/mL [1] [%]
c1ccc(N[C@H]2CCCC[C@H]2NCc2ccc(CNCc3ccccn3)cc2)cc1 (relative stereo) [Example 132, N-(2-pyridinylmethyl)-N′-[cis-2-(N-phenylamino)cyclohexyl]-1,4-benzenedimethanamine] | < 20 | < 20 | > 20
Cc1ccc2nc(CN(Cc3ccc(CNCc4ccccn4)cc3)C3CCCc4cccnc43)oc2c1 (stereo not drawn) [Example 17, N-(2-pyridinylmethyl)-N′-(6-methylbenzoxazol-2-ylmethyl)-N′-(5,6,7,8-tetrahydro-8-quinolinyl)-1,4-benzenedimethanamine] | < 20 | < 20 | –
c1ccc(-c2ccc(-c3cnc(CN(Cc4ccc(CNCc5ccccn5)cc4)C4CCCc5cccnc54)[nH]3)cc2)cc1 (stereo not drawn) [Example 31, N-(2-Pyridinylmethyl)-N′-(4-(4-biphenyl)-1H-imidazol-2-ylmethyl)-N′-(5,6,7,8-tetrahydro-8-quinolinyl)-1,4-benzenedimethanamine] | < 20 | < 20 | –
COc1c(Br)cccc1-c1cnc(CN(Cc2ccc(CNCc3ccccn3)cc2)C2CCCc3cccnc32)[nH]1 (stereo not drawn) [Example 33, N-(2-Pyridinylmethyl)-N′-[5-(3-Bromo-2-methoxy-phenyl)-1H-imidazol-2-ylmethyl]-N′-(5,6,7,8-tetrahydro-8-quinolinyl)-1,4-benzenedimethanamine] | < 20 | < 20 | –
c1ccc(CNCc2ccc(CN(CCn3cnc4ccccc43)C3CCCc4cccnc43)cc2)nc1 (stereo not drawn) [Example 37, N-(2-pyridinylmethyl)-N′-[2-(benzimidazol-1-yl)eth-1-yl]-N′-(5,6,7,8-tetrahydro-8-quinolinyl)-1,4-benzenedimethanamine] | < 20 | – | –
c1ccc(CNCc2ccc(CN(CCCn3cnc4ccccc43)C3CCCc4cccnc43)cc2)nc1 (stereo not drawn) [Example 38, N-(2-pyridinylmethyl)-N′-[3-(benzimidazol-1-yl)prop-1-yl]-N′-(5,6,7,8-tetrahydro-8-quinolinyl)-1,4-benzenedimethanamine] | – | < 20 | > 20
COc1ccnc2c1CCCC2N(Cc1ccc(CNCc2ccccn2)cc1)Cc1nc2ccccc2[nH]1 (stereo not drawn) [Example 44, N-(2-pyridinylmethyl)-N′-[1H-benzimidazol-2-ylmethyl]-N′-(4-methoxy-5,6,7,8-tetrahydro-8-quinolinyl)-1,4-benzenedimethanamine] | – | < 20 | > 20
Oc1cccc(CNCc2ccc(CN(Cc3nc4ccccc4[nH]3)C3CCCc4cccnc43)cc2)n1 (stereo not drawn) [Example 58, N-(6-hydroxy-2-pyridinylmethyl)-N′-(1H-benzimidazol-2-ylmethyl)-N′-(5,6,7,8-tetrahydro-8-quinolinyl)-1,4-benzenedimethanamine] | – | < 20 | > 20

Second part, led by results:

EC50 (HIV-1 BaL) [µg/mL] | EC50 (HIV-1 NL4.3 or IIIB) [µg/mL] | SMILES | inhibition at 20 µg/mL [1] [%]
< 20 | < 20 | c1ccc(CNCc2ccc(CN[C@H]3CCCC[C@@H]3NCc3ccccn3)cc2)nc1 (relative stereo) [Example 133, N-(2-pyridinylmethyl)-N′-[trans-2-[(pyridin-2-ylmethyl)amino]cyclohexyl]-1,4-benzenedimethanamine] | > 20
< 20 | < 20 | c1ccc(CNCc2ccc(CN(Cc3nc4ccccc4o3)C3CCCc4cccnc43)cc2)nc1 (stereo not drawn) [Example 8, N-(2-pyridinylmethyl)-N′-(benzoxazol-2-ylmethyl)-N′-(5,6,7,8-tetrahydro-8-quinolinyl)-1,4-benzenedimethanamine] | –
< 20 | < 20 | c1ccc(CNCc2ccc(CN(Cc3cc4ccccc4[nH]3)C3CCCc4cccnc43)cc2)nc1 (stereo not drawn) [Example 19, N-(2-pyridinylmethyl)-N′-(indol-2-ylmethyl)-N′-(5,6,7,8-tetrahydro-8-quinolinyl)-1,4-benzenedimethanamine] | –
< 20 | < 20 | c1ccc(CNCc2ccc(CN(Cc3ncc(-c4ccc5c(c4)CCCC5)[nH]3)C3CCCc4cccnc43)cc2)nc1 (stereo not drawn) [Example 32, N-(2-Pyridinylmethyl)-N′-[5-(5,6,7,8-tetrahydronaphthalen-2-yl)-1H-imidazol-2-ylmethyl]-N′-(5,6,7,8-tetrahydro-8-quinolinyl)-1,4-benzenedimethanamine] | –
– | < 20 | c1ccc(CNCc2ccc(CN(Cc3nc4ccccc4[nH]3)C3CCOc4cccnc43)cc2)nc1 (stereo not drawn) [Example 40, N-(2-pyridinylmethyl)-N′-(1-H-benzimidazol-2-ylmethyl)-N′-(3,4-dihydro-2H-pyrano[3,2-b]pyridinyl)-1,4-benzenedimethanamine] | > 20
– | < 20 | CC1(N(Cc2ccc(CNCc3ccccn3)cc2)Cc2nc3ccccc3[nH]2)CCCc2cccnc21 (stereo not drawn) [Example 42, N-(2-pyridinylmethyl)-N′-(1H-benzimidazol-2-ylmethyl)-N′-(8-methyl-5,6,7,8-tetrahydro-8-quinolinyl)-1,4-benzenedimethanamine] | > 20
– | < 20 | Cc1cccnc1CNCc1ccc(CN(Cc2nc3ccccc3[nH]2)C2CCCc3cccnc32)cc1 (stereo not drawn) [Example 56, N-(3-methyl-2-pyridinylmethyl)-N′-(1H-benzimidazol-2-ylmethyl)-N′-(5,6,7,8-tetrahydro-8-quinolinyl)-1,4-benzenedimethanamine] | > 20
– | < 20 | Brc1cccc(CNCc2ccc(CN(Cc3nc4ccccc4[nH]3)C3CCCc4cccnc43)cc2)n1 (stereo not drawn) [Example 57, N-(6-bromo-2-pyridinylmethyl)-N′-(1H-benzimidazol-2-ylmethyl)-N′-(5,6,7,8-tetrahydro-8-quinolinyl)-1,4-benzenedimethanamine] | > 20
– | < 20 | CCCOc1cccnc1CNCc1ccc(CN(Cc2nc3ccccc3[nH]2)C2CCCc3cccnc32)cc1 (stereo not drawn) [Example 59, N-(3-propoxy-2-pyridinylmethyl)-N′-(1H-benzimidazol-2-ylmethyl)-N′-(5,6,7,8-tetrahydro-8-quinolinyl)-1,4-benzenedimethanamine] | > 20
– | < 20 | c1cnc2c(c1)CCCC2NCc1ccc(CN(Cc2nc3ccccc3[nH]2)C2CCCc3cccnc32)cc1 (stereo not drawn) [Example 60, N-(5,6,7,8-tetrahydro-8-quinolinyl)-N′-(1H-benzimidazol-2-ylmethyl)-N′-(5,6,7,8-tetrahydro-8-quinolinyl)-1,4-benzenedimethanamine] | > 20
– | < 20 | COc1cccnc1CNCc1ccc(CN(Cc2nc3ccccc3[nH]2)C2CCCc3cccnc32)cc1 (stereo not drawn) [Example 65, N-(3-methoxy-2-pyridinylmethyl)-N′-(1H-benzimidazol-2-ylmethyl)-N′-(5,6,7,8-tetrahydro-8-quinolinyl)-1,4-benzenedimethanamine] | > 20
